Where only a bound is given, the exact number is not on record here.

For this assay, the target named is T1, mouse TRPM3α2 (mTRPM3) ion channel (Mus musculus, UniProt J9SQF3).
T1 construct: expressed in transfected cells; host or cells: flip-in HEK293
T1 sequence (J9SQF3 1-1709 isoform J9SQF3-12): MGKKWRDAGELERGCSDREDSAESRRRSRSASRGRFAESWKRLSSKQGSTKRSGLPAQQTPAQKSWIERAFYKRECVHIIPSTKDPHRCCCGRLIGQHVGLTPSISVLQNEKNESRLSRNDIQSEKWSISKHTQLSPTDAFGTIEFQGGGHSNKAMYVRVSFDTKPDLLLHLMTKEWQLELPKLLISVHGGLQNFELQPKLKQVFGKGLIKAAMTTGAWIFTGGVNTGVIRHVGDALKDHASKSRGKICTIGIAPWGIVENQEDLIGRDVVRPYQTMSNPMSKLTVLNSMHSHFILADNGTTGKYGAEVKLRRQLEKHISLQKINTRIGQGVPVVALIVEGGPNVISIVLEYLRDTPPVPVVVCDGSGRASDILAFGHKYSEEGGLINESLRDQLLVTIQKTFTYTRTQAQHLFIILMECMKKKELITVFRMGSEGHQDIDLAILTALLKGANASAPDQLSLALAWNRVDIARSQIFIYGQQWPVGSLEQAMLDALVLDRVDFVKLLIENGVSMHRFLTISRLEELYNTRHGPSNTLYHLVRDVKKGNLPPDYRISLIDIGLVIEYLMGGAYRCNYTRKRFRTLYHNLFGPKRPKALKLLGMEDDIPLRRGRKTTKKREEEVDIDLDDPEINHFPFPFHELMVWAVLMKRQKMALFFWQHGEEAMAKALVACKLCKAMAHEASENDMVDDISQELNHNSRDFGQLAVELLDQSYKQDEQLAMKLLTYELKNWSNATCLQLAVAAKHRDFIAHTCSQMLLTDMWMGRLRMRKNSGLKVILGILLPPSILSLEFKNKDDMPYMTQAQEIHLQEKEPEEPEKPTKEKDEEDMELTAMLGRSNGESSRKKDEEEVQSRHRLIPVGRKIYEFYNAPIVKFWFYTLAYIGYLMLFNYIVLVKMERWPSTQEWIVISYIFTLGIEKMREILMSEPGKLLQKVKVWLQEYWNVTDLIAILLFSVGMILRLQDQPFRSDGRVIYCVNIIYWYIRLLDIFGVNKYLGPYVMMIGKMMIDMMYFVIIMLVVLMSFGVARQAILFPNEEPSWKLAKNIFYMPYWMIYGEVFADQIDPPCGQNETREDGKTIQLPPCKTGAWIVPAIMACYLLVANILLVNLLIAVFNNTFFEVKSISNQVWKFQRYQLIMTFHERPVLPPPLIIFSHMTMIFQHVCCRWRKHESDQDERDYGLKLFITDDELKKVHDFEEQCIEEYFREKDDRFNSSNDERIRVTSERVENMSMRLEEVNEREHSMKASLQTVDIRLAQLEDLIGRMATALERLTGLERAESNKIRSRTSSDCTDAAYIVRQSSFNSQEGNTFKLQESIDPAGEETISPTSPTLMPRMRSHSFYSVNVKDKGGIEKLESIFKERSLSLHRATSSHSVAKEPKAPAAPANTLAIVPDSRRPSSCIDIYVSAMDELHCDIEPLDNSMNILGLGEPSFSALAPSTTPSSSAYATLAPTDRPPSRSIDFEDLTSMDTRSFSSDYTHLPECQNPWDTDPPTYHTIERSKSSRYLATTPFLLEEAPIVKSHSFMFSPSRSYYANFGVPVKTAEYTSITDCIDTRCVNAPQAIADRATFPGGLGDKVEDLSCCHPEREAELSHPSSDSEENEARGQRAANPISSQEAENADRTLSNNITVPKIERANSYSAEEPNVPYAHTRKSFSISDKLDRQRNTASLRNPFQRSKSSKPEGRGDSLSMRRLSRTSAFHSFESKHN
Put plainly: TRPM3 ion channel driven Ca2+ uptake, Fluo-4 AM assay, mTRPM3alpha2 overexpressing flip-in HEK293 cells stimulated with pregnenolone sulfate (50 μM). The assay is classed as cell-based. Conditions: mTRPM3 overexpressing HEK293 cells stimulated with pregnenolone sulfate (50 μM), activity ranges A, B, C. The procedure, abridged:
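Flip-in HEK293 cells overexpressing mTRPM3α2, loaded with Fluo-4 AM, added at ±2000 cells/well to plates holding compound plus 50 μM pregnenolone sulfate in Ca2+-containing Krebs buffer. Fluorescence (ex 485/em 535 nm) read immediately. Percent inhibition normalised between vehicle and positive-control inhibitor; IC50 derived.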
`Cn1nc2ccc(OCc3ccccc3)cc2c1C(=O)NC(C)(C)CO` [Cpd 023, 5-(benzyloxy)-N-(1-hydroxy-2-methylpropan-2-yl)-2-methyl-2H-indazole-3-carboxamide]: the IC50 – broadly, the point on the concentration scale where inhibition reaches its midpoint – lay in the range of 1 to 20 µM.

Regarding `Cn1nc2ccc(OCc3ccccc3)cc2c1C(=O)N[C@@H]1COC[C@H]1O` (single isomer, unassigned) [Cpd 011 - Dia1], the IC50 was in the range of 1 to 20 µM.

Turning to `Cn1nc2ccc(OCc3ccccn3)cc2c1C(=O)NC(CO)CC(N)=O` (single isomer, unassigned) [Cpd 240 - En2, 4-hydroxy-3-({2-methyl-5-[(pyridin-2-yl)methoxy]-2H-indazol-3-yl}formamido)butanamide], the concentration for half-maximal inhibition (IC50) was more than 20 µM.

Regarding `Cn1nccc1COc1ccc2nn(C)c(C(=O)NC(CO)C(N)=O)c2c1` (centres unmarked) [Cpd 027, 3-hydroxy-2-({2-methyl-5-[(1-methyl-1H-pyrazol-5-yl)methoxy]-2H-indazol-3-yl}formamido)propanamide], the IC50 was in the range of 1 to 20 µM.

The molecule `Cn1nc2ccc(OCc3cccnc3C(F)(F)F)cc2c1C(=O)NC1CCNCC1(F)F` (single isomer, unassigned) [Cpd 003 - En1] displayed an IC50 of less than 1 µM.

Regarding `Cn1nc2ccc(OCc3cccnc3C(F)(F)F)cc2c1C(=O)NC(CO)C(N)=O` (centres unmarked) [Cpd 026, 3-hydroxy-2-[(2-methyl-5-{[2-(trifluoromethyl)pyridin-3-yl]methoxy}-2H-indazol-3-yl)formamido]propanamide], the IC50 was less than 1 µM.

`Cn1nc2ccc(OCc3ccccn3)cc2c1C(=O)NC1(CO)CC1C(F)F` (single isomer, unassigned) [Cpd 237 - En1] gave an IC50 of 1 to 20 µM.

The molecule `Cn1nc2ccc(OCc3cccnc3C(F)(F)F)cc2c1C(=O)NCC(C)(C)CO` [Cpd 019, N-(3-hydroxy-2,2-dimethylpropyl)-2-methyl-5-{[2-(trifluoromethyl)pyridin-3-yl]methoxy}-2H-indazole-3-carboxamide] gave a concentration for half-maximal inhibition (IC50) of more than 20 µM.

As to `Cn1nc2ccc(OCc3ccccn3)cc2c1C(=O)NC1(CO)CCNC1=O` (single isomer, unassigned) [Cpd 253 - En1], the 50% inhibitory concentration (IC50) was less than 1 µM.

In turn, `Cn1nc2ccc(OCc3cccnc3C(F)(F)F)cc2c1C(=O)NC1(C(N)=O)COC1` [Cpd 087, N-(3-carbamoyloxetan-3-yl)-2-methyl-5-{[2-(trifluoromethyl)pyridin-3-yl]methoxy}-2H-indazole-3-carboxamide] displayed a half-maximal inhibitory concentration (IC50) of 1 to 20 µM.

The molecule `Cc1ncsc1COc1ccc2nn(C)c(C(=O)NC3CCN(C)CC3)c2c1` [Cpd 112, 2-methyl-5-[(4-methyl-1,3-thiazol-5-yl)methoxy]-N-(1-methylpiperidin-4-yl)-2H-indazole-3-carboxamide] came in with an IC50 of more than 20 µM.

For the molecule `Cc1ncc(COc2ccc3nn(C)c(C(=O)N[C@H](C)C(N)=O)c3c2)s1` [Cpd 117, (2R)-2-({2-methyl-5-[(2-methyl-1,3-thiazol-5-yl)methoxy]-2H-indazol-3-yl}formamido)propanamide], the concentration for half-maximal inhibition (IC50) was more than 20 µM.

In turn, `Cc1ncc(COc2ccc3nn(C)c(C(=O)NC4CCN(C)CC4)c3c2)s1` [Cpd 111, 2-methyl-5-[(2-methyl-1,3-thiazol-5-yl)methoxy]-N-(1-methylpiperidin-4-yl)-2H-indazole-3-carboxamide] yielded an IC50 of more than 20 µM.

`O=C1NCCn2nc3ccc(OCc4ccccc4)cc3c21` [Cpd 257, 9-(benzyloxy)-1H,2H,3H,4H-pyrazino[1,2-b]indazol-1-one] returned an IC50 of more than 20 µM.

With `Cn1nc2ccc(OCc3ccccn3)cc2c1C(=O)NC(CO)C1CCOCC1` (single isomer, unassigned) [Cpd 241 - En2], the half-maximal inhibitory concentration (IC50) was more than 20 µM.

`CN(C)C1(CNC(=O)c2c3cc(OCc4ccccc4)ccc3nn2C)CCC1` [Cpd 078, 5-(benzyloxy)-N-{[1-(dimethylamino)cyclobutyl]methyl}-2-methyl-2H-indazole-3-carboxamide] came in with an IC50 of 1 to 20 µM.

In the case of `Cc1ncc(COc2ccc3nn(C)c(C(=O)NC4(CO)CC4)c3c2)s1` [Cpd 114, N-[1-(hydroxymethyl)cyclopropyl]-2-methyl-5-[(2-methyl-1,3-thiazol-5-yl)methoxy]-2H-indazole-3-carboxamide], the IC50 is more than 20 µM.

Values taken from patent US20250376461A1, “INDAZOLE DERIVATIVES FOR TREATING TRPM3-MEDIATED DISORDERS” (Katholieke Universiteit Leuven, priority 2022, published 2025).
